Marks after values point to notes of the source that are not given here.

What all share (assay type): in vivo
In one test the test system is Septoria nodorum. The experiment in a line: Test C: preventive spray on wheat seedlings, visual disease rating (Septoria glume blotch). The gist of the method: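 Wheat seedlings were sprayed to run-off with 200 ppm suspension (40 ppm where marked; 200 ppm ≈ 800 g/ha) in acetone/water with 250 ppm Trem 014, then inoculated next day with Septoria nodorum spores. Incubation was 48 h saturated at 24 °C, then 6 days at 20 °C; visual rating 0–100% disease control versus controls.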

Another test deals with Alternaria solani. Briefly: Test B: preventive spray on tomato seedlings, visual disease rating (tomato early blight). The gist of the method:
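Compounds were suspended at 200 ppm (asterisked values at 40 ppm) in acetone/water with surfactant and sprayed to run-off on tomato seedlings, 200 ppm being equivalent to 800 g/ha. A. solani spores were inoculated the next day, with 48 h at 27 °C in saturated air, then 5 days at 20 °C. Disease control was rated visually, 0–100% relative to controls.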

In a further test the test system is Botrytis cinerea. The experiment in a line: Test A: preventive spray on tomato seedlings, visual disease rating (tomato Botrytis). The gist of the method: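 Preventive test: Botrytis cinerea spores applied one day after run-off spraying at 200 ppm (≈800 g/ha), or 40 ppm where asterisked. Incubation 48 h at 20 °C in saturated air, then 3 days at 24 °C; disease scored visually from 0 (no control) to 100 (complete control) versus untreated.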

Test [1] has as its system Puccinia recondite f. sp. tritici. The experiment in a line: Test E1: curative spray on wheat seedlings after inoculation, visual disease rating (wheat leaf rust). The method in brief:
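Seedlings inoculated with rust spores, held 24 h in saturated atmosphere at 20 °C, then 2 days at 20 °C before curative spray to run-off with test suspension (200 ppm ≈ 800 g/ha, or 40 ppm where marked) in acetone/water with surfactant. Visual disease control rating (0–100) after 6 further days at 20 °C.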

Test [2] shares this test system. The experiment in a line: Test E2: preventive spray on wheat seedlings, visual disease rating (wheat leaf rust). The gist of the method: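 Wheat seedlings were inoculated with leaf rust spores one day after a run-off spray of compound at 200 ppm (asterisk: 40 ppm) in 50/50 acetone/water with 250 ppm Trem 014. Incubation: 24 h saturated humidity, 20 °C; then 7 days growth chamber, 20 °C. Disease control scored visually, 0–100% relative to controls.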

The test system of test [3] is Blumeria graminis f. sp. tritici. The experiment in a line: Test F: preventive spray on wheat seedlings, visual disease rating (wheat powdery mildew). The method in brief: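 Visual ratings (0–100% control relative to controls) taken 8 days after spore-dust inoculation at 20° C. Inoculation followed one day after a protective run-off spray of 200 ppm suspension, equal to 800 g/ha, or 40 ppm where flagged, made in acetone/water with 250 ppm surfactant.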

The subject of another test is Septoria tritici. The experiment in a line: Test D: preventive spray on wheat seedlings, visual disease rating (wheat leaf blotch). The gist of the method:
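Protection was scored visually on a 0–100% disease-control scale versus controls, 19 days after plants were moved to 20 °C following 48 h of 24 °C saturated humidity. Spore inoculation with S. tritici took place one day after a preventive run-off spray, usually at 200 ppm (800 g/ha) and at 40 ppm where asterisked.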

Setting [4] is: no asterisk: standard test suspension, not 40 ppm.
Where [5] appears, read: no asterisk: standard test suspension, not 40 ppm, 100 = 100% disease control, 0 = none.
[6] abbreviates: asterisk: 40 ppm test suspension.

`Cc1nn(C)c(-c2ccccc2Br)c1C(O)c1ccc(F)cc1Cl` (single isomer, unassigned) [compound 79]: the “Test C rating (% disease control)” value in the test with Septoria nodorum (setting [4]) is 0%. For the same molecule, in the test with Alternaria solani (setting [4]), the “Test B rating (% disease control)” value turned out to be 0%. Besides, in the test on Botrytis cinerea (setting [5]), the “Test A rating (% disease control)” value worked out at 98%. The “Test E1 rating (% disease control)” value in test [1] (setting [4]) was 53%. Besides, the “Test E2 rating (% disease control)” value in test [2] (setting [4]) is listed as 100%. The “Test F rating (% disease control)” value in test [3] (setting [4]) was 99%. The “Test D rating (% disease control)” value in the test with Septoria tritici (setting [4]) is 100%.
For `Cc1nn(C)c(-c2ccc(F)cc2Cl)c1Oc1ccc(C#N)cc1Cl` [compound 43], in the test with Septoria nodorum (setting [4]), the “Test C rating (% disease control)” value was found to be 0%. In the test on Alternaria solani (setting [4]), the “Test B rating (% disease control)” value worked out at 0%. The “Test A rating (% disease control)” value in the test with Botrytis cinerea (setting [5]) is 98%. Also, the “Test E1 rating (% disease control)” value in test [1] (setting [4]) was determined as 0%. The “Test E2 rating (% disease control)” value in test [2] (setting [4]) turned out to be 98%. Also, in test [3] (setting [4]), the “Test F rating (% disease control)” value was determined as 97%. Further, the “Test D rating (% disease control)” value with Septoria tritici (setting [4]) was determined as 100%.
For the molecule “4-[[5-(2-chloro-4-fluorophenyl)-1,3-dimethyl-1H-pyrazol-4-yl]amino]-3,5-difluorobenzonitrile [Compound 40]”, the “Test C rating (% disease control)” value in the test on Septoria nodorum (setting [4]) was 0%. In the test on Alternaria solani (setting [4]), the “Test B rating (% disease control)” value worked out at 0%. In addition, in the test on Botrytis cinerea (setting [5]), the “Test A rating (% disease control)” value worked out at 100%. Further, the “Test E1 rating (% disease control)” value in test [1] (setting [4]) was 38%. Also, in test [2] (setting [4]), the “Test E2 rating (% disease control)” value was found to be 68%. Also, the “Test F rating (% disease control)” value in test [3] (setting [4]) worked out at 91%. In addition, in the test with Septoria tritici (setting [4]), the “Test D rating (% disease control)” value stood at 0%.
As to `Cc1nn(C)c(-c2ccc(F)cc2F)c1Oc1ccc(F)cc1F` [compound 13], the “Test C rating (% disease control)” value in the test on Septoria nodorum (setting [4]) was 0%. In the test on Alternaria solani (setting [4]), the “Test B rating (% disease control)” value was 0%. The “Test A rating (% disease control)” value with Botrytis cinerea (setting [5]) turned out to be 100%. Also, the “Test E1 rating (% disease control)” value in test [1] (setting [4]) was found to be 66%. Also, in test [2] (setting [4]), the “Test E2 rating (% disease control)” value was determined as 0%. For the same molecule, the “Test F rating (% disease control)” value in test [3] (setting [4]) is recorded as 72%. The “Test D rating (% disease control)” value with Septoria tritici (setting [4]) is listed as 0%.
For `Cc1nn(C)c(-c2ccc(F)cc2Cl)c1Nc1ccc(F)cc1` [compound 41], the “Test C rating (% disease control)” value with Septoria nodorum (setting [4]) is reported as 0%. Also, the “Test B rating (% disease control)” value in the test on Alternaria solani (setting [4]) is reported as 64%. For the same molecule, the “Test A rating (% disease control)” value in the test with Botrytis cinerea (setting [5]) amounted to 100%. Further, in test [1] (setting [4]), the “Test E1 rating (% disease control)” value stood at 0%. For the same molecule, the “Test E2 rating (% disease control)” value in test [2] (setting [4]) is recorded as 41%. The “Test F rating (% disease control)” value in test [3] (setting [4]) is listed as 0%. The “Test D rating (% disease control)” value with Septoria tritici (setting [4]) is listed as 98%.
Take `COc1cc(F)c(C(O)c2c(C)nn(C)c2-c2ccc(F)cc2Cl)c(F)c1` (stereo not drawn) [compound 20]: the “Test C rating (% disease control)” value in the test on Septoria nodorum (setting [6]) was 0* %. For the same molecule, the “Test B rating (% disease control)” value in the test on Alternaria solani (setting [6]) is listed as 97* %. In the test on Botrytis cinerea (setting [6]), the “Test A rating (% disease control)” value was 97* %. Besides, in test [1] (setting [6]), the “Test E1 rating (% disease control)” value was 99* %. Besides, the “Test E2 rating (% disease control)” value in test [2] (setting [6]) is 99* %. Further, in test [3] (setting [6]), the “Test F rating (% disease control)” value is listed as 92* %. Further, the “Test D rating (% disease control)” value with Septoria tritici (setting [6]) is reported as 100* %.
